The target in test [1] is T1, GCN2 (Homo sapiens, UniProt Q9P2K8). The test is described as follows: TR-FRET assay for inhibition of GCN2 (Example 107, for Examples 40-72).
The target in test [2] is T1, GCN2. The test is described as follows: TR-FRET biochemical assay for inhibition of GCN2 (Example 106, for Example 1-4BB).

T1 sequence (Q9P2K8 whole entry): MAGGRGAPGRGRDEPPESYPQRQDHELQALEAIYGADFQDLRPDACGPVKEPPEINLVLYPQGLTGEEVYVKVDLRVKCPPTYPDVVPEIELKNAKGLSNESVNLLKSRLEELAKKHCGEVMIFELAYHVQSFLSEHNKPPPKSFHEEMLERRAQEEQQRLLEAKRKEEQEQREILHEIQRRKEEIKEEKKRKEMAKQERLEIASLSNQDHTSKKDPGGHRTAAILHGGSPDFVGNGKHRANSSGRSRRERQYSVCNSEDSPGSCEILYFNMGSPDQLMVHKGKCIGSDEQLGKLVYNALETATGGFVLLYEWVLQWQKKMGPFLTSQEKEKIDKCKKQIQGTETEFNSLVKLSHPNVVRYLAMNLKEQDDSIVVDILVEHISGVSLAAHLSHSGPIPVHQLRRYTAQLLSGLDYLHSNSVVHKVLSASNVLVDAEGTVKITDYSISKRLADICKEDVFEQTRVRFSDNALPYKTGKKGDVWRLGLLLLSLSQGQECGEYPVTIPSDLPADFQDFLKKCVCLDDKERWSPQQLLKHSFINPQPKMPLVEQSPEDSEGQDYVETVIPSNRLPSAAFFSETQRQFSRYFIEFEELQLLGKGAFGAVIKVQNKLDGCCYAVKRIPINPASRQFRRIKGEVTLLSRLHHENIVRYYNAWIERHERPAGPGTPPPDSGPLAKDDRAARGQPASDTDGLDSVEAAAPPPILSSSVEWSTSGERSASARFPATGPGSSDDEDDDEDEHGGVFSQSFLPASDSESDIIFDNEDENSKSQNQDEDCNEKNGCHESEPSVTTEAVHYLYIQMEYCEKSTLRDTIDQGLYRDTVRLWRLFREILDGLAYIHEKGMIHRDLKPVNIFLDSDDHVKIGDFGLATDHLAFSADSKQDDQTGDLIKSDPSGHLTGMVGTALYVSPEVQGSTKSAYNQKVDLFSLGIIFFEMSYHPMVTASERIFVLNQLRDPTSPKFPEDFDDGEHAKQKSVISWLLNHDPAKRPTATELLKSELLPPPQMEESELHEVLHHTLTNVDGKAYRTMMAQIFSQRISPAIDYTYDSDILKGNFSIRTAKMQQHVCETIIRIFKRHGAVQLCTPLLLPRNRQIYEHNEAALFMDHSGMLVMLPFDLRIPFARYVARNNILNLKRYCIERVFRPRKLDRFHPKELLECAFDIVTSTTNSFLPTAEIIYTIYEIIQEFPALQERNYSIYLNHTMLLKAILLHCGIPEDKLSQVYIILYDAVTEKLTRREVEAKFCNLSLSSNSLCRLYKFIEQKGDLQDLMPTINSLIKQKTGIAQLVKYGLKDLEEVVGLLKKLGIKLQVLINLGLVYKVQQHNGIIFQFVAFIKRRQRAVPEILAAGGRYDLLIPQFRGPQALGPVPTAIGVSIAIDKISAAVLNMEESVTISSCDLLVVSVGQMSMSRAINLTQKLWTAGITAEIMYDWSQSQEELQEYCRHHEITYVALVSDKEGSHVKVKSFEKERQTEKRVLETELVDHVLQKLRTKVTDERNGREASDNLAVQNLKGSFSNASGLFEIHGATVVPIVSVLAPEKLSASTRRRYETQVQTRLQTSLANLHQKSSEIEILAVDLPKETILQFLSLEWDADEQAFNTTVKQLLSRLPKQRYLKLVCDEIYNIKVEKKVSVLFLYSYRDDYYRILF

`CCCNC(=O)c1n[nH]c2c(F)c(-c3c(F)ccc(NS(=O)(=O)c4cc(Cl)cnc4OC)c3F)ccc12` [Example 58, 6-[3-(5-Chloro-2-methoxypyridine-3-sulfonamido)-2,6-difluorophenyl]-7-fluoro-N-propyl-1H-indazole-3-carboxamide]: the IC50 against GCN2 [1] was < 0.5 µM.

Turning to `COc1ncc(Cl)cc1S(=O)(=O)Nc1ccc(F)c(-c2ccc3c(C(=O)NCC(C)O)n[nH]c3c2F)c1F` (stereo not shown) [Example 52, 6-[3-(5-Chloro-2-methoxypyridine-3-sulfonamido)-2,6-difluorophenyl]-7-fluoro-N-(2-hydroxypropyl)-1H-indazole-3-carboxamide], the IC50 on GCN2 [1] was < 0.5 µM.

With `COc1ncc(Cl)cc1S(=O)(=O)Nc1ccc(F)c(-c2ccc3c(NC(C)=O)n[nH]c3c2F)c1F` [Example 44, N-(6-(3-(5-chloro-2-methoxypyridine-3-sulfonamido)-2,6-difluorophenyl)-7-fluoro-1H-indazol-3-yl)acetamide], the IC50 against GCN2 [1] was < 0.5 µM.

As for `CNC(=O)c1n[nH]c2c(F)c(-c3c(F)ccc(NS(=O)(=O)c4cc(F)cnc4C)c3F)ncc12` [Example 66, 6-[2,6-Difluoro-3-(5-fluoro-2-methylpyridine-3-sulfonamido)phenyl]-7-fluoro-N-methyl-1H-pyrazolo[4,3-c]pyridine-3-carboxamide], on GCN2 [1], the IC50 is < 0.5 µM.

Turning to `COc1ncc(Cl)cc1S(=O)(=O)Nc1ccc(F)c(-c2ccc3c(C(=O)NC(C)CO)n[nH]c3c2F)c1F` (stereo not shown) [Example 53, 6-[3-(5-Chloro-2-methoxypyridine-3-sulfonamido)-2,6-difluorophenyl]-7-fluoro-N-(1-hydroxypropan-2-yl)-1H-indazole-3-carboxamide], at GCN2 [1], the half-inhibitory concentration (IC50) is < 0.5 µM.

Consider `COc1ncc(Cl)cc1S(=O)(=O)Nc1ccc(F)c(-c2ccc3c(C(=O)NC4CCN(C(C)=O)C4)n[nH]c3c2F)c1F` (stereo not shown) [Example 51, N-(1-acetylpyrrolidin-3-yl)-6-[3-(5-chloro-2-methoxypyridine-3-sulfonamido)-2,6-difluorophenyl]-7-fluoro-1H-indazole-3-carboxamide], for which, on GCN2 [1], the IC50 was < 0.5 µM.

For `CNC(=O)c1n[nH]c2c(F)c(-c3c(F)ccc(NS(=O)(=O)c4cccc5occc45)c3F)ccc12` [Example 61, 6-[3-(1-Benzofuran-4-sulfonamido)-2,6-difluorophenyl]-7-fluoro-N-methyl-1H-indazole-3-carboxamide], on GCN2 [1], the IC50 is < 0.5 µM.

Consider `COc1ncc(Cl)cc1S(=O)(=O)Nc1ccc(F)c(-c2ccc3c(C(=O)NC4CCC(=O)N(C)C4)n[nH]c3c2F)c1F` (stereo not shown) [Example 50, 6-[3-(5-Chloro-2-methoxypyridine-3-sulfonamido)-2,6-difluorophenyl]-7-fluoro-N-(1-methyl-6-oxopiperidin-3-yl)-1H-indazole-3-carboxamide], for which, on GCN2 [1], the IC50 was < 0.5 µM.

Take `CNC(=O)c1n[nH]c2c(F)c(-c3c(F)ccc(NS(=O)(=O)c4cccc5ncn(C)c45)c3F)ccc12` [Example 63, 6-[2,6-Difluoro-3-(3-methyl-1,3-benzodiazole-4-sulfonamido)phenyl]-7-fluoro-N-methyl-1H-indazole-3-carboxamide]: the IC50 at GCN2 [1] was < 0.5 µM.

With `CNC(=O)c1n[nH]c2c(F)c(-c3c(F)ccc(NS(=O)(=O)c4cc(C#N)cnc4OC(F)F)c3F)ccc12` [Example 46, 6-[3-[5-Cyano-2-(difluoromethoxy)pyridine-3-sulfonamido]-2,6-difluorophenyl]-7-fluoro-N-methyl-1H-indazole-3-carboxamide], the IC50 against GCN2 [1] was < 0.5 µM.

Regarding `CNC(=O)c1n[nH]c2c(F)c(-c3c(F)ccc(NS(=O)(=O)c4cccc5[nH]cnc45)c3F)ccc12` [Example 62, 6-[3-(1H-1,3-Benzodiazole-4-sulfonamido)-2,6-difluorophenyl]-7-fluoro-N-methyl-1H-indazole-3-carboxamide], the IC50 at GCN2 [1] fell in the range of 0.5 to 2.5 µM.

For `COc1ncc(F)cc1S(=O)(=O)Nc1ncc(F)c(-c2ccc3c(-c4nc(CO)c[nH]4)n[nH]c3c2F)c1F` [Example 3K, N-(3,5-difluoro-4-(7-fluoro-3-(4-(hydroxymethyl)-1H-imidazol-2-yl)-1H-indazol-6-yl)pyridin-2-yl)-5-fluoro-2-methoxypyridine-3-sulfonamide], at GCN2 [2] (Table 9), the IC50 is < 0.5 µM.

As for `COc1ncc(Cl)cc1S(=O)(=O)Nc1ncnc(-c2ccc3c(-c4ncc[nH]4)n[nH]c3c2F)c1F` [Example 2AK, 5-chloro-N-(5-fluoro-6-(7-fluoro-3-(1H-imidazol-2-yl)-1H-indazol-6-yl)pyrimidin-4-yl)-2-methoxypyridine-3-sulfonamide], the IC50 on GCN2 [2] (Table 8) is < 0.5 µM.

On to `CC1CCc2c1cc(F)cc2S(=O)(=O)Nc1ccc(F)c(-c2ccc3c(-c4ncc[nH]4)n[nH]c3c2F)c1F` (stereo not shown) [Example 4AQ], for which the IC50 against GCN2 [2] (Table 9) is < 0.5 µM.

On to `COc1ncc(Cl)cc1S(=O)(=O)Nc1cccc(-c2cc3[nH]nc(C(=O)NCCCN(C)C)c3cn2)c1F` [Example 35, 6-[3-[(5-chloro-2-methoxy-3-pyridyl)sulfonylamino]-2-fluoro-phenyl]-N-[3-(dimethylamino)propyl]-1H-pyrazolo[4,3-c]pyridine-3-carboxamide], for which the IC50 at GCN2 [2] (Table 9) is < 0.5 µM.

Consider `COc1ncc(F)cc1S(=O)(=O)Nc1cccc(-c2ccc3c(C(=O)NC[C@@H](O)CO)n[nH]c3c2F)c1F` [Example 3AX, 6-(2-fluoro-3-((5-fluoro-2-methoxypyridine)-3-sulfonamido)phenyl)-N-((R)-2,3-dihydroxypropyl)-7-fluoro-1H-indazole-3-carboxamide], for which the IC50 at GCN2 [2] (Table 9) lay in the range of 0.5 to 2.5 µM.

In the case of `Cc1ccc(S(=O)(=O)Nc2ccc(F)c(-c3ccc4c(C(=O)Nc5cnoc5)n[nH]c4c3F)c2F)c(C)n1` [Example 3DG, 6-(3-((2,6-dimethylpyridine)-3-sulfonamido)-2,6-difluoro-phenyl)-7-fluoro-N-(isoxazol-4-yl)-1H-indazole-3-carboxamide], at GCN2 [2] (Table 9), the IC50 is < 0.5 µM.

On to `O=C1CCc2c1cc(F)cc2S(=O)(=O)Nc1ccc(F)c(-c2ccc3c(C(=O)NCCCO)n[nH]c3c2F)c1F` [Example 4U], for which, at GCN2 [2] (Table 9), the IC50 is < 0.5 µM.

For `COc1ncccc1S(=O)(=O)Nc1ccnc(-c2ccc3c(-c4ncc[nH]4)n[nH]c3c2F)c1C#N` [Example 3G, N-(3-cyano-2-(7-fluoro-3-(1H-imidazol-2-yl)-1H-indazol-6-yl)pyridin-4-yl)-2-methoxypyridine-3-sulfonamide], the IC50 at GCN2 [2] (Table 9) was > 10 µM.

Regarding `COc1ncc(F)cc1S(=O)(=O)Nc1ccc(F)c(-c2ccc3c(-c4nc(CO)c[nH]4)n[nH]c3c2F)c1F` [Example 3X, N-(2,4-difluoro-3-(7-fluoro-3-(4-(hydroxymethyl)-1H-imidazol-2-yl)-1H-indazol-6-yl)phenl)-5-fluoro-2-methoxypyridine-3-sulfonamide], the IC50 against GCN2 [2] (Table 9) was < 0.5 µM.

In the case of `Cc1ncc(F)cc1S(=O)(=O)Nc1cc(C#N)cc(-c2ccc3c(-c4ncc[nH]4)n[nH]c3c2F)c1F` [Example 3CC, N-(5-cyano-2-fluoro-3-(7-fluoro-3-(1H-imidazol-2-yl)-1H-indazol-6-yl)phenyl)-5-fluoro-2-methylpyridine-3-sulfonamide], the IC50 against GCN2 [2] (Table 9) is > 10 µM.

As to `COc1ncc(F)cc1S(=O)(=O)Nc1ccc(F)c(-c2ccc3c(C(=O)NC4CCN(C)CC4)n[nH]c3c2F)c1F` [Example 3AJ, 6-(2,6-difluoro-3-((5-fluoro-2-methoxypyridine)-3-sulfonamido)phenyl)-7-fluoro-N-(1-methylpiperidin-4-yl)-1H-indazole-3-carboxamide], on GCN2 [2] (Table 9), the IC50 is < 0.5 µM.

The values above are taken from patent US20220388964A1 (HiberCell, Inc., priority 2019, published 2022).
